According to article PMC6895048, “4,5-Disubstituted 1,2,3-triazoles: Effective Inhibition of Indoleamine 2,3-Dioxygenase 1 Enzyme Regulates T cell Activity and Mitigates Tumor Growth” (Scientific Reports, 2019):

Key:
[1] = target: T1, purified human TDO enzyme (Homo sapiens, UniProt P48775); assay: TDO inhibition assay by the spectrometric method; type: biochemical; details: for inhibitory efficacies against TDO enzyme: both spectrophotometric and kynurenine assay
T1 construct: 6xHis (N); made in house; host or cells: Escherichia coli BL21 (DE3) (pET 28a vector)
T1 sequence (P48775 whole entry): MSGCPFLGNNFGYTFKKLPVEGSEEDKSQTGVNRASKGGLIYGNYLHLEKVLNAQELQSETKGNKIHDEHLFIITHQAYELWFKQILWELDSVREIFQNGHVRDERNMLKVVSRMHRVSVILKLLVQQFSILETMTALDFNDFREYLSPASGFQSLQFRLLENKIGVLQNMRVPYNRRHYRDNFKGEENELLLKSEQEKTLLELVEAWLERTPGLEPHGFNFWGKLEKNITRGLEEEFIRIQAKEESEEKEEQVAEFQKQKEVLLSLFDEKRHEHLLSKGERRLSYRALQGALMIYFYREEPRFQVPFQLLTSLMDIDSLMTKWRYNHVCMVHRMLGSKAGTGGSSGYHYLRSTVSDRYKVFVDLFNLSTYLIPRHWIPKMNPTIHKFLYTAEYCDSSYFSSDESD
Protocol: Both IDO1 and TDO inhibition assays were performed according to the reported procedures[26]–[30],[50],[51]. The solubility of the compounds in water was either moderate or poor. […] In the assay system, the minimum and maximum amount of DMSO was 0.02% and 2%, respectively. The standard reaction mixture (500 μL) containing KPB (100 mM, pH 6.5 for IDO1 enzyme and 50 mM, pH 8.0 for TDO enzyme), sodium ascorbate (20 mM), methylene blue (10 µM), catalase (240 nM, from bovine liver), L-Trp (150 µM), purified enzyme (40 nM for IDO1 and 25 nM for TDO), DMSO (0.05%, v/v), Triton-X 100 (0.01%, v/v) and inhibitors was incubated at 37 °C for 1 hour. The concentration of the inhibitors was varied from 100 µM to 32 nM by serial dilution technique. Then, the reaction was quenched with 100 µL of 30% (w/v) trichloroacetic acid and was incubated for further 15 minutes at 65 °C. After that, 2% (w/v) pDMAB was used to quantify the amount of kynurenine formation. The absorbance of the reaction mixture was recorded by UV-Vis spectrophotometer at 480 nm. The Km = 59.76 µM and Kcat = 6.18 sec^−1.

CD8+ T cells = assay: T cell activity in breast tumor micro-environment (flow cytometry); type: cell-based, human; details: 50 μM; for regulation of CD8+ T cells in tumor micro-environment: 20% MDA-MB-231 conditioned medium, 48 hours; for regulation of effector memory CD8+ T cells in tumor micro-environment: CCR7lowCD45RAlow phenotype
Protocol: We designed this study to evaluate the effects of IDO1 inhibition on cytotoxic T cells present in the breast tumor micro-environment. To mimic breast tumor micro-environment, we used 20% conditioned medium of human metastatic breast cancer cell line MDA-MB-231 with fresh RPMI and 10% FBS. Freshly isolated PBL cells were stimulated with PMA and ionomycin prior to culture in 20% conditioned medium and compounds at selected concentrations. Drug treatment was done for 48 hours followed by immunophenotyping by flow cytometry. For cell proliferation experiments freshly isolated PBLs were cultured in RPMI with 10% FBS and inhibitors for 48 hours. After that the cells were counted with hemocytometer. All the experiments were repeated thrice before analyzing data. The concentration of the compounds was 50 μM for all the T cell activity studies. All the T cell culture related experiments were conducted in the designated biosafety level facility available at the University of Calcutta.
Peripheral blood lymphocyte was isolated from freshly isolated blood samples of healthy volunteers in a previously described protocol. Briefly, blood was diluted with equal volume of sterile PBS and allowed in density gradient centrifugation over histopaque. Isolated PBLs were washed and cultured in RPMI medium with 10% FBS. Peripheral blood lymphocytes (PBLs) were isolated from fresh blood of healthy volunteers and cultured in RPMI medium with or without compound at selected concentration for 48 hours. Treatment of the compound uplifted cell proliferation. To evaluate whether 4,5-disubstituted 1,2,3-triazole regulate T cell activity, PBL was isolated and cultured at 20% conditioned medium of human metastatic breast cancer cell line MDA-MB-231. To perform this experiment PBL was isolated from three healthy volunteers and three independent experiments were performed. All the volunteers signed informed consent form[45],[49].
The T cells were activated according to standardized protocol published elsewhere. 100 ng/mL PMA and 1 μg/mL ionomycin were used to stimulate the T cells for 2 hrs. PBLs freshly cultured in RPMI with 10% FBS was added in the culture plate at 2 × 10^5 cells/ well and cultured at 37 °C with 5% CO2 for the duration of activation.
After treatment for given period of time the lymphocytes were analyzed for alteration of protein expression by flow cytometry according to previously published protocols. Briefly the cells were pelleted down resuspended in cell staining buffer. After cell counting cells were stained against PE-CD8 (Miltenyi Bioteh.), PerCP-Cy 5.5-CCR-7 (Miltenyi Bioteh.), APC-CD45RA (Miltenyi Bioteh.), VioBright-FITC-PD-1 (Miltenyi Bioteh.) antibodies as per the manufacturer recommended concentration and incubated in ice for given period of time. Post incubation, the cells were washed, suspended in cell staining buffer before data was acquired using FACS-Verse flow cytometer. The results were analyzed with FlowJo software (v X.0.7). The experiments were repeated thrice prior data analysis.

[2] = target: T2, IDO1 enzyme (ferric and deoxy-ferrous) (Homo sapiens, UniProt P14902); assay: Binding analysis by UV-Vis spectroscopic measurement; details: for Soret band red-shift: both ferric-IDO1 and deoxy-ferrous-IDO1; for Q-band shift: deoxy-ferrous-IDO1, Q-band at 551 nm for only enzyme
T2 construct: made in house; host or cells: Escherichia coli M15 (pQE30 vector with pREP4 plasmid)
T2 sequence (P14902 whole entry): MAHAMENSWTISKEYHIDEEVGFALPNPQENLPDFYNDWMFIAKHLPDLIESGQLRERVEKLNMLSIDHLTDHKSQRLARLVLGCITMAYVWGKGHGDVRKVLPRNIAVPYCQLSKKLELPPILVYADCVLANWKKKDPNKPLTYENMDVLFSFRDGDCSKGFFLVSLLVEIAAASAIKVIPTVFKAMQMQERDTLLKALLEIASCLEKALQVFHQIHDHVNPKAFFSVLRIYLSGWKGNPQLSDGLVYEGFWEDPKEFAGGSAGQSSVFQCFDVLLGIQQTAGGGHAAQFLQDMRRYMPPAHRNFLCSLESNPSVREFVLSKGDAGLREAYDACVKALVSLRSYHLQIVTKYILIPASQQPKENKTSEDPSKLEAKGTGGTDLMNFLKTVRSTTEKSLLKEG
Protocol: Figure 4 Binding properties of the potent compounds. Absorption spectra of ferric-IDO1 (A) and deoxy-ferrous-IDO1 enzyme (B) in the absence and presence of the compounds (20 μM) in 100 mM phosphate buffer at pH 6.5. [IDO1] = 0.65 μM. The ferrous-deoxy reaction environment was generated by adding Na2S2O4 to the solution under N2 atmosphere. The binding isotherms were generated from the response unit (RU) at 60 sec (average of triplicate measurements) versus the concentration of the compounds. A solid line represents a theoretical curve constructed from Rmax and Kd values determined by nonlinear least-squares analysis of the isotherms (C). 20 mm HEPES buffer, pH 7.4, with 0.16 m KCl was used for all SPR measurements. […] The model structures were generated using MoleGro Virtual Docker, version 6.0. The oxygen and nitrogen atoms are shown in red and blue, respectively. Residues involved in interactions through hydrogen bond formation are shown using dashed lines (yellow). Images were generated using PyMol.
The efficacy of the compound’s direct binding to the enzyme active site was measured by UV-Vis spectroscopic analysis[26]–[28],[30]. All the measurements were performed at room temperature using 100 mM KPB (pH 6.5), purified hIDO1 enzyme (3 µM), and selected compounds (20 µM. The deoxy-reaction system was generated by injecting Na2S2O4 (~10-fold excess) into the solution pre-purged with N2 gas.

O=C(N/C(Cc1ccc(O)cc1)=N\O)c1n[nH]nc1-c1ccc(F)c(F)c1 [Compound 4i]
inhibitory efficacies against TDO enzyme [1]: moderate to poor | % of Enzyme inhibition (TDO) ([1]; spectrophotometric, 32 nM): 4% | % of Enzyme inhibition (TDO) ([1]; spectrophotometric, 160 nM): 7% | % of Enzyme inhibition (TDO) ([1]; spectrophotometric, 800 nM): 14% | % of Enzyme inhibition (TDO) ([1]; spectrophotometric, 4 µM): 24% | % of Enzyme inhibition (TDO) ([1]; spectrophotometric, 20 µM): 42% | % of Enzyme inhibition (TDO) ([1]; spectrophotometric, 100 µM): 55% | PD-1 expression on CD8+ T cells in tumor micro-environment (CD8+ T cells): Down-regulation | regulation of CD8+ T cells in tumor micro-environment (CD8+ T cells): Up-regulation | regulation of effector memory CD8+ T cells in tumor micro-environment (CD8+ T cells): Up-regulation | Soret band red-shift [2]: 5–8 nm | Q-band shift [2]: 10–13 nm

NS(=O)(=O)NCCNC(=O)c1n[nH]nc1-c1ccc(F)c(F)c1 [Compound 4k]
inhibitory efficacies against TDO enzyme [1]: moderate to poor | inhibition at 0.032 µM ([1]; spectrophotometric, 32 nM): 3% | inhibition at 0.16 µM ([1]; spectrophotometric, 160 nM): 6% | inhibition at 0.8 µM ([1]; spectrophotometric, 800 nM): 16% | inhibition at 4 µM ([1]; spectrophotometric, 4 µM): 32% | inhibition at 20 µM ([1]; spectrophotometric, 20 µM): 45% | inhibition at 100 µM ([1]; spectrophotometric, 100 µM): 50% | PD-1 expression on CD8+ T cells in tumor micro-environment (CD8+ T cells): Down-regulation | regulation of CD8+ T cells in tumor micro-environment (CD8+ T cells): Up-regulation | regulation of effector memory CD8+ T cells in tumor micro-environment (CD8+ T cells): Up-regulation | Soret band red-shift [2]: 5–8 nm | Q-band shift [2]: 10–13 nm

NC(=O)c1n[nH]nc1-c1ccc(F)c(F)c1 [Compound 3i]
inhibitory efficacies against TDO enzyme [1]: moderate to poor | % of Enzyme inhibition (TDO) ([1]; spectrophotometric, 32 nM): 5% | % of Enzyme inhibition (TDO) ([1]; spectrophotometric, 160 nM): 11% | % of Enzyme inhibition (TDO) ([1]; spectrophotometric, 800 nM): 14% | % of Enzyme inhibition (TDO) ([1]; spectrophotometric, 4 µM): 26% | % of Enzyme inhibition (TDO) ([1]; spectrophotometric, 20 µM): 33% | % of Enzyme inhibition (TDO) ([1]; spectrophotometric, 100 µM): 49% | PD-1 expression on CD8+ T cells in tumor micro-environment (CD8+ T cells): Down-regulation | regulation of CD8+ T cells in tumor micro-environment (CD8+ T cells): Up-regulation | regulation of effector memory CD8+ T cells in tumor micro-environment (CD8+ T cells): Up-regulation | Soret band red-shift [2]: 5–8 nm | Q-band shift [2]: 10–13 nm

CCOC(=O)c1n[nH]nc1-c1ccc(F)c(F)c1 [Compound 2i]
inhibitory efficacies against TDO enzyme [1]: moderate to poor | % of Enzyme inhibition (TDO) ([1]; spectrophotometric, 32 nM): 2% | % of Enzyme inhibition (TDO) ([1]; spectrophotometric, 160 nM): 9% | % of Enzyme inhibition (TDO) ([1]; spectrophotometric, 800 nM): 12% | % of Enzyme inhibition (TDO) ([1]; spectrophotometric, 4 µM): 15% | % of Enzyme inhibition (TDO) ([1]; spectrophotometric, 20 µM): 23% | % of Enzyme inhibition (TDO) ([1]; spectrophotometric, 100 µM): 28% | PD-1 expression on CD8+ T cells in tumor micro-environment (CD8+ T cells): Down-regulation | regulation of CD8+ T cells in tumor micro-environment (CD8+ T cells): Up-regulation | regulation of effector memory CD8+ T cells in tumor micro-environment (CD8+ T cells): Up-regulation | Soret band red-shift [2]: 5–8 nm | Q-band shift [2]: 10–13 nm
